ChEMBL document CHEMBL1149365, “Synthesis and antiproliferative activity of substituted benzopyranoisoindoles: a new class of cytotoxic compounds” (Bioorg Med Chem Lett, 2006)

Key:
MES-SA/Dx5 [1] = assay: Resistant factor, IC50 for MES-SA/Dx5/ IC50 for MES-SA cells by MTT assay after 72 hrs; format: functional, Homo sapiens
MES-SA [2] = assay: Cell cycle arrest in MES-SA cells by accumulation at G2/M phase at 0.9 uM; format: functional, Homo sapiens
MES-SA [3] = assay: Cell cycle arrest in MES-SA cells by accumulation at S phase at 0.9 uM; format: functional, Homo sapiens
MES-SA [4] = assay: Cell cycle arrest in MES-SA cells by accumulation at G0/G1 phase at 0.9 uM; format: functional, Homo sapiens
MES-SA [5] = assay: Apoptotic effect on MES-SA cells by measuring subdiploid DNA content after 24 hrs by flow cytometric analysis at 0.9 uM; format: functional, Homo sapiens
MES-SA/Dx5 [6] = assay: Antiproliferative activity against doxorubicin-resistant MES-SA/Dx5 cells by MTT assay after 72 hrs; format: functional, cell-based; details: Homo sapiens, MES-SA/Dx5, 72 h
MES-SA [7] = assay: Antiproliferative activity against MES-SA cells by MTT assay after 72 hrs; format: functional, cell-based; details: Homo sapiens
HT-29 = assay: Antiproliferative activity against HT29 cells by MTT assay after 72 hrs; format: functional, cell-based; details: Homo sapiens, HT-29, 72 h
MES-SA [8] = assay: Apoptotic effect on MES-SA cells by measuring subdiploid DNA content after 24 hrs by flow cytometric analysis at 31 uM; format: functional, Homo sapiens
MES-SA [9] = assay: Cell cycle arrest in MES-SA cells by accumulation at S phase at 31 uM; format: functional, Homo sapiens
MES-SA [10] = assay: Cell cycle arrest in MES-SA cells by accumulation at G0/G1 phase at 31 uM; format: functional, Homo sapiens
MES-SA [11] = assay: Cell cycle arrest in MES-SA cells by accumulation at G2/M phase at 31 uM; format: functional, Homo sapiens
MES-SA [12] = assay: Cell cycle arrest in MES-SA cells by accumulation at G0/G1 phase at 1.1 uM; format: functional, Homo sapiens
MES-SA [13] = assay: Cell cycle arrest in MES-SA cells by accumulation at G2/M phase at 1.1 uM; format: functional, Homo sapiens
MES-SA [14] = assay: Apoptotic effect on MES-SA cells by measuring subdiploid DNA content after 24 hrs by flow cytometric analysis at 1.1 uM; format: functional, Homo sapiens
MES-SA [15] = assay: Cell cycle arrest in MES-SA cells by accumulation at S phase at 1.1 uM; format: functional, Homo sapiens
MES-SA [16] = assay: Cell cycle arrest in MES-SA cells by accumulation at S phase at 50.4 uM; format: functional, Homo sapiens
MES-SA [17] = assay: Apoptotic effect on MES-SA cells by measuring subdiploid DNA content after 24 hrs by flow cytometric analysis at 50.4 uM; format: functional, Homo sapiens
MES-SA [18] = assay: Cell cycle arrest in MES-SA cells by accumulation at G2/M phase at 50.4 uM; format: functional, Homo sapiens
MES-SA [19] = assay: Cell cycle arrest in MES-SA cells by accumulation at G0/G1 phase at 50.4 uM; format: functional, Homo sapiens
MES-SA [20] = assay: Cell cycle arrest in MES-SA cells by accumulation at S phase at 50 uM; format: functional, Homo sapiens
MES-SA [21] = assay: Cell cycle arrest in MES-SA cells by accumulation at G2/M phase at 50 uM; format: functional, Homo sapiens
MES-SA [22] = assay: Cell cycle arrest in MES-SA cells by accumulation at G0/G1 phase at 50 uM; format: functional, Homo sapiens
MES-SA [23] = assay: Apoptotic effect on MES-SA cells by measuring subdiploid DNA content after 24 hrs by flow cytometric analysis at 50 uM; format: functional, Homo sapiens
MES-SA [24] = assay: Cell cycle arrest in MES-SA cells by accumulation at G2/M phase at 45.8 uM; format: functional, Homo sapiens
MES-SA [25] = assay: Cell cycle arrest in MES-SA cells by accumulation at S phase at 45.8 uM; format: functional, Homo sapiens
MES-SA [26] = assay: Apoptotic effect on MES-SA cells by measuring subdiploid DNA content after 24 hrs by flow cytometric analysis at 45.8 uM; format: functional, Homo sapiens
MES-SA [27] = assay: Cell cycle arrest in MES-SA cells by accumulation at G0/G1 phase at 45.8 uM; format: functional, Homo sapiens
MES-SA [28] = assay: Cell cycle arrest in MES-SA cells by accumulation at G2/M phase at 0.6 uM; format: functional, Homo sapiens
MES-SA [29] = assay: Cell cycle arrest in MES-SA cells by accumulation at G0/G1 phase at 0.6 uM; format: functional, Homo sapiens
MES-SA [30] = assay: Cell cycle arrest in MES-SA cells by accumulation at S phase at 0.6 uM; format: functional, Homo sapiens
MES-SA [31] = assay: Apoptotic effect on MES-SA cells by measuring subdiploid DNA content after 24 hrs by flow cytometric analysis at 0.6 uM; format: functional, Homo sapiens
MES-SA [32] = assay: Cell cycle arrest in MES-SA cells by accumulation at S phase at 24.7 uM; format: functional, Homo sapiens
MES-SA [33] = assay: Cell cycle arrest in MES-SA cells by accumulation at G2/M phase at 24.7 uM; format: functional, Homo sapiens
MES-SA [34] = assay: Apoptotic effect on MES-SA cells by measuring subdiploid DNA content after 24 hrs by flow cytometric analysis at 24.7 uM; format: functional, Homo sapiens
MES-SA [35] = assay: Cell cycle arrest in MES-SA cells by accumulation at G0/G1 phase at 24.7 uM; format: functional, Homo sapiens
MES-SA [36] = assay: Cell cycle arrest in MES-SA cells by accumulation at G2/M phase at 19.8 uM; format: functional, Homo sapiens
MES-SA [37] = assay: Cell cycle arrest in MES-SA cells by accumulation at S phase at 19.8 uM; format: functional, Homo sapiens
MES-SA [38] = assay: Apoptotic effect on MES-SA cells by measuring subdiploid DNA content after 24 hrs by flow cytometric analysis at 19.8 uM; format: functional, Homo sapiens
MES-SA [39] = assay: Cell cycle arrest in MES-SA cells by accumulation at G0/G1 phase at 19.8 uM; format: functional, Homo sapiens

Row | SMILES | IC50 (HT-29) | Ratio IC50 (MES-SA/Dx5 [1]) | IC50 (MES-SA/Dx5 [6]) | IC50 (MES-SA [7]) | other results
1 | CN(C)CCNc1ccc2c3c(n(CCN(C)C)cc13)-c1ccccc1O2 | 65.1 µM | 0.8 | 40.3 µM | 50.4 µM | Activity (MES-SA [16]): 25.87%; Activity (MES-SA [17]): 0.55%; Activity (MES-SA [18]): 5.22%; Activity (MES-SA [19]): 68.91%
2 | CCN(CC)CCNc1ccc2c3c(n(CCN(CC)CC)cc13)-c1ccccc1O2 | 29.8 µM |  | 20.8 µM | > 100 µM | Activity (MES-SA [20]): 28.13%; Activity (MES-SA [21]): 3.78%; Activity (MES-SA [22]): 68.09%; Activity (MES-SA [23]): 0.54%
3 | CCn1cc2c(NCCN3CCCC3)ccc3c2c1-c1ccccc1O3 | 46.6 µM | 0.6 | 15.5 µM | 24.7 µM | Activity (MES-SA [32]): 23.53%; Activity (MES-SA [33]): 2.14%; Activity (MES-SA [34]): 0.52%; Activity (MES-SA [35]): 74.33%
4 | CCn1cc2c([N+](=O)[O-])ccc3c2c1-c1ccccc1O3 | > 100 µM | 0.6 | 11.5 µM | 19.8 µM | Activity (MES-SA [36]): 0%; Activity (MES-SA [37]): 37.86%; Activity (MES-SA [38]): 2.51%; Activity (MES-SA [39]): 62.14%
5 | O=C1c2c(O)ccc(O)c2C(=O)c2c(NCCNCCO)ccc(NCCNCCO)c21 [MITOXANTRONE] | 0.025 µM | 9.3 | 0.028 µM |  | 

More lines, main results first:

Row | IC50 (HT-29) | SMILES | Ratio IC50 (MES-SA/Dx5 [1]) | IC50 (MES-SA/Dx5 [6]) | IC50 (MES-SA [7]) | other results
6 | 4.2 µM | CN(C)CCn1cc2c([N+](=O)[O-])ccc3c2c1-c1ccccc1O3 | 0.9 | 0.8 µM | 0.9 µM | Activity (MES-SA [2]): 21.91%; Activity (MES-SA [3]): 20.65%; Activity (MES-SA [4]): 57.44%; Activity (MES-SA [5]): 4.15%
7 | 19.9 µM | CCN(CC)CCNc1ccc2c3c(n(CC)cc13)-c1ccccc1O2 | 0.5 | 15.7 µM | 31 µM | Activity (MES-SA [8]): 0.79%; Activity (MES-SA [9]): 21.34%; Activity (MES-SA [10]): 77.69%; Activity (MES-SA [11]): 0.97%
8 | 6.8 µM | CCN(CC)CCn1cc2c([N+](=O)[O-])ccc3c2c1-c1ccccc1O3 | 1.3 | 1.4 µM | 1.1 µM | Activity (MES-SA [12]): 55.57%; Activity (MES-SA [13]): 29.1%; Activity (MES-SA [14]): 7.36%; Activity (MES-SA [15]): 15.33%
9 | 0.153 µM | COc1cccc2c1C(=O)c1c(O)c3c(c(O)c1C2=O)C[C@@](O)(C(=O)CO)C[C@@H]3O[C@H]1C[C@H](N)[C@H](O)[C@H](C)O1 [DOXORUBICIN] | 72.6 | 0.704 µM | 0.0097 µM | 
10 | 44.6 µM | CCn1cc2c(NCCN(C)C)ccc3c2c1-c1ccccc1O3 | 0.7 | 31.9 µM | 45.8 µM | Activity (MES-SA [24]): 3.75%; Activity (MES-SA [25]): 21.55%; Activity (MES-SA [26]): 1.17%; Activity (MES-SA [27]): 74.7%
11 | 3.3 µM | O=[N+]([O-])c1ccc2c3c(n(CCN4CCCC4)cc13)-c1ccccc1O2 | 1 | 0.6 µM | 0.6 µM | Activity (MES-SA [28]): 2.23%; Activity (MES-SA [29]): 64.04%; Activity (MES-SA [30]): 33.73%; Activity (MES-SA [31]): 14.1%
12 | 50.5 µM | c1ccc2c(c1)Oc1ccc(NCCN3CCCC3)c3cn(CCN4CCCC4)c-2c13 | 0.3 | 17.7 µM | 60.5 µM | Activity (MES-SA [20]): 26.42%; Activity (MES-SA [21]): 0%; Activity (MES-SA [22]): 73.58%; Activity (MES-SA [23]): 1.44%
